Test results reported in ChEMBL document CHEMBL3808352, “Pyrazolylamine Derivatives Reveal the Conformational Switching between Type I and Type II Binding Modes of Anaplastic Lymphoma Kinase (ALK)” (J Med Chem, 2016).

Experiment: Lipophilicity, log P of the compound
Assay type: physicochemical
Conditions: octanol/water

| logP | SMILES |
| --- | --- |
| 4.54 | Cc1cc(-c2cc(NC(=O)c3ccc(CN4CCN(C)CC4)cc3)[nH]n2)ccc1NC(=O)Nc1cc(C(C)(C)C)on1 |
| 2.61 | Cc1cc(-c2cc(NC(=O)c3ccc(CN4CCN(C)CC4)cc3)[nH]n2)ccc1N |
